From patent publication US9597310B2, “Indanyloxydihydrobenzofuranylacetic acids” (Boehringer Ingelheim International GmbH, priority 2012, dated 2017)

The compounds below were run against human GPR40 receptor (Homo sapiens (Human), UniProt O14842) (assay: IP1 accumulation measurements using the IPOne assay system). Conditions: 1321N1 cells stably expressing human GPR40 receptor, 1 h stimulation.
Assay type: cell-based
Protocol: IP1 accumulation measurements using the IPOne assay system—1321N1 cells stably expressing human GPR40 receptor (Euroscreen, Belgium) are seeded 24 h before the assay in white 384-well plates in culture medium containing 10% FCS, 1% Na-Pyruvate and 400 μg/mL G418. IP1 is assayed according to the manufacturer's description (Cisbio Bioassays, France). In brief, the assay is started by substitution of the culture medium by stimulation buffer (Hepes 10 mM, CaCl2 1 mM, MgCl2 0.5 mM, KCl 4.2 mM, NaCl 146 mM, glucose 5.5 mM and LiCl 50 mM, pH 7.4). Cells are stimulated for 1 h at 37° C., 5% CO2 by addition of the compounds that are diluted in stimulation buffer containing LiCl. Assays are stopped by adding HTRF-conjugates (IP1-d2 and Anti-IP1 cryptate Tb) and lysis buffer, provided by the manufacturer. After an incubation time of 1 h at room temperature plates are measured using an EnVision™, Perkin Elmer. The obtained fluorescence ratios at 665/615 […] are then used to calculate the pEC50 values using Assay Explorer 3.3 Software (Accelrys, Inc.) by interpolation using an IP1 reference curve and subsequent sigmoidal curve fitting allowing for a variable hill slope.

human GPR40 receptor, sequence (O14842 whole entry): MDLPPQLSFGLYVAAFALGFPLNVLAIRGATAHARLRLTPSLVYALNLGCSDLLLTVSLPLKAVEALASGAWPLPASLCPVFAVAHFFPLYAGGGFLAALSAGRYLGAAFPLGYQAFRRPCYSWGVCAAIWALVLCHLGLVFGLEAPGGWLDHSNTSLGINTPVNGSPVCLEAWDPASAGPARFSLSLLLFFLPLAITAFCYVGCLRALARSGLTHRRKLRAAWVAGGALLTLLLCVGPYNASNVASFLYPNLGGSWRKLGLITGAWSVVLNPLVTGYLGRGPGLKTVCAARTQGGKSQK

Row | Compound | EC50
1 | CC(C)(O)Cn1cc(-c2c(F)cc(Oc3ccc(F)c4c3CC[C@H]4Oc3ccc4c(c3)OC[C@H]4CC(=O)O)cc2F)cn1 [Example 20, {(S)-6-[(R)-4-{3,5-Difluoro-4-[1-(2-hydroxy-2-methyl-propyl)-1H-pyrazol-4-yl]-phenoxy}-7-fluoro-indan-1-yloxy]-2,3-dihydro-benzofuran-3-yl}-acetic acid] | 7 nM
2 | O=C(O)C[C@@H]1COc2cc(O[C@@H]3CCc4c(Oc5ccc(-c6nccs6)cc5)ccc(F)c43)ccc21 [Example 21, {(S)-6-[(R)-7-Fluoro-4-(4-thiazol-2-yl-phenoxy)-indan-1-yloxy]-2,3-dihydro-benzofuran-3-yl}-acetic acid] | 6 nM
3 | Cc1ncc(-c2ccc(Oc3ccc(F)c4c3CC[C@H]4Oc3ccc4c(c3)OC[C@H]4CC(=O)O)cc2)s1 [Example 22, [(S)-6-{(R)-7-Fluoro-4-[4-(2-methyl-thiazol-5-yl)-phenoxy]-indan-1-yloxy}-2,3-dihydro-benzofuran-3-yl]-acetic acid] | 5 nM
4 | CC(C)(O)CCCc1ccc(Oc2ccc(F)c3c2CC[C@H]3Oc2ccc3c(c2)OC[C@H]3CC(=O)O)nc1 [Example 23, [(S)-6-{(R)-7-Fluoro-4-[5-(4-hydroxy-4-methyl-pentyl)-pyridin-2-yloxy]-indan-1-yloxy}-2,3-dihydro-benzofuran-3-yl]-acetic acid] | 84 nM
5 | O=C(O)C[C@@H]1COc2cc(O[C@@H]3CCc4c(Oc5ccc6c(c5)NC(=O)CC6)ccc(F)c43)ccc21 [Example 24, {(S)-6-[(R)-7-Fluoro-4-(2-oxo-1,2,3,4-tetrahydroquinoline-7-yloxy)-indan-1-yloxy]-2,3-dihydrobenzofuran-3-yl}-acetic acid] | 10 nM
6 | O=C(O)C[C@@H]1COc2cc(O[C@@H]3CCc4c(Oc5ccc6c(c5)OCO6)ccc(F)c43)ccc21 [Example 25, {(S)-6-[(R)-4-(Benzo[d][1,3]dioxol-5-yloxy)-7-fluoro-indan-1-yloxy]-2,3-dihydrobenzofuran-3-yl}-acetic acid] | 6 nM
7 | O=C(O)C[C@@H]1COc2cc(O[C@@H]3CCc4c(Oc5ccc6c(c5)OCCO6)ccc(F)c43)ccc21 [Example 26, {(S)-6-[(R)-4-(2,3-Dihydrobenzo[b][1,4]dioxin-6-yloxy)-7-fluoro-indan-1-yloxy]-2,3-dihydrobenzofuran-3-yl}-acetic acid] | 6 nM
8 | O=C(O)C[C@@H]1COc2cc(O[C@@H]3CCc4c(Oc5ccc(C6CCOCC6)cc5)ccc(F)c43)ccc21 [Example 27, ((S)-6-{(R)-7-Fluoro-4-[4-(tetrahydro-2H-pyran-4-yl)phenoxy]-indan-1-yloxy}-2,3-dihydrobenzofuran-3-yl)-acetic acid] | 9 nM
9 | CC(C)(O)CCCc1ccc(Oc2ccc(F)c3c2CC[C@H]3Oc2ccc3c(c2)OC[C@H]3CC(=O)O)cc1 [Example 28, ((S)-6-{(R)-7-Fluoro-4-[4-(4-hydroxy-4-methylpentyl)phenoxy]-indan-1-yloxy}-2,3-dihydrobenzofuran-3-yl)-acetic acid] | 20 nM
10 | CC(C)(O)Cn1cc(-c2cc(F)c(Oc3ccc(F)c4c3CC[C@H]4Oc3ccc4c(c3)OC[C@H]4CC(=O)O)cc2F)cn1 [Example 29, [(S)-6-((R)-4-{2,5-Difluoro-4-[1-(2-hydroxy-2-methylpropyl)-1H-pyrazol-4-yl]phenoxy}-7-fluoro-indan-1-yloxy)-2,3-dihydrobenzofuran-3-yl]-acetic acid] | 12 nM
11 | CC(C)(O)CCn1ncc2cc(Oc3ccc(F)c4c3CC[C@H]4Oc3ccc4c(c3)OC[C@H]4CC(=O)O)ccc21 [Example 30, ((S)-6-{(R)-7-Fluoro-4-[1-(3-hydroxy-3-methylbutyl)-1H-indazol-5-yloxy]-indan-1-yloxy}-2,3-dihydrobenzofuran-3-yl)-acetic acid] | 13 nM
12 | CC(C)(O)Cn1cc(-c2cc(F)c(Oc3ccc(F)c4c3CC[C@H]4Oc3ccc4c(c3)OC[C@H]4CC(=O)O)c(F)c2)cn1 [Example 31, [(S)-6-((R)-4-{2,6-Difluoro-4-[1-(2-hydroxy-2-methylpropyl)-1H-pyrazol-4-yl]phenoxy}-7-fluoro-indan-1-yloxy)-2,3-dihydrobenzofuran-3-yl]-acetic acid] | 58 nM
13 | Cc1nc(-c2ccc(Oc3ccc(F)c4c3CC[C@H]4Oc3ccc4c(c3)OC[C@H]4CC(=O)O)cc2)cs1 [Example 32, ((S)-6-{(R)-7-Fluoro-4-[4-(2-methylthiazol-4-yl)phenoxy]-indan-1-yloxy}-2,3-dihydrobenzofuran-3-yl)-acetic acid] | 13 nM
14 | CC(C)(O)CCOc1cc(F)c(Oc2ccc(F)c3c2CC[C@H]3Oc2ccc3c(c2)OC[C@H]3CC(=O)O)cc1F [Example 34, ((S)-6-{(R)-4-[2,5-Difluoro-4-(3-hydroxy-3-methylbutoxy)phenoxy]-7-fluoro-indan-1-yloxy}-2,3-dihydrobenzofuran-3-yl)-acetic acid] | 6 nM
15 | O=C(O)C[C@@H]1COc2cc(O[C@@H]3CCc4c(Oc5ccc(CC6CCOCC6)cc5)ccc(F)c43)ccc21 [Example 35, [(S)-6-((R)-7-Fluoro-4-{4-[(tetrahydro-2H-pyran-4-yl)methyl]phenoxy}-indan-1-yloxy)-2,3-dihydrobenzofuran-3-yl]-acetic acid] | 5 nM
16 | CC(C)(O)CCn1ncc2ccc(Oc3ccc(F)c4c3CC[C@H]4Oc3ccc4c(c3)OC[C@H]4CC(=O)O)cc21 [Example 36, ((S)-6-{(R)-7-Fluoro-4-[1-(3-hydroxy-3-methylbutyl)-1H-indazol-6-yloxy]-indan-1-yloxy}-2,3-dihydrobenzofuran-3-yl)-acetic acid] | 8 nM
17 | O=C(O)C[C@@H]1COc2cc(O[C@@H]3CCc4c(Oc5ccc(OCC6(O)CCOCC6)c(F)c5)ccc(F)c43)ccc21 [Example 37, [(S)-6-((R)-7-Fluoro-4-{3-fluoro-4-[(4-hydroxytetrahydro-2H-pyran-4-yl)-methoxy]phenoxy}-indan-1-yloxy)-2,3-dihydrobenzofuran-3-yl]-acetic acid] | 8 nM
18 | Cn1ccnc1-c1ccc(Oc2ccc(F)c3c2CC[C@H]3Oc2ccc3c(c2)OC[C@H]3CC(=O)O)cc1 [Example 38, ((S)-6-{(R)-7-Fluoro-4-[4-(1-methyl-1H-imidazol-2-yl)phenoxy]-indan-1-yloxy}-2,3-dihydrobenzofuran-3-yl)-acetic acid] | 41 nM
19 | CS(=O)(=O)CCCOc1cc(F)c(Oc2ccc(F)c3c2CC[C@H]3Oc2ccc3c(c2)OC[C@H]3CC(=O)O)cc1F [Example 39, [(S)-6-((R)-4-{2,5-Difluoro-4-[3-(methylsulfonyl)propoxy]phenoxy}-7-fluoro-indan-1-yloxy)-2,3-dihydrobenzofuran-3-yl]-acetic acid] | 23 nM
20 | Cc1cc(OCCC(C)(C)O)cc(C)c1Oc1ccc(F)c2c1CC[C@H]2Oc1ccc2c(c1)OC[C@H]2CC(=O)O [Example 40, ((S)-6-{(R)-7-Fluoro-4-[4-(3-hydroxy-3-methylbutoxy)-2,6-dimethylphenoxy]-indan-1-yloxy}-2,3-dihydrobenzofuran-3-yl)-acetic acid] | 733 nM
21 | CC(C)(O)CCCc1ccc(C#N)c(Oc2ccc(F)c3c2CC[C@H]3Oc2ccc3c(c2)OC[C@H]3CC(=O)O)c1 [Example 41, ((S)-6-{(R)-4-[2-Cyano-5-(4-hydroxy-4-methylpentyl)phenoxy]-7-fluoro-indan-1-yloxy}-2,3-dihydrobenzofuran-3-yl)-acetic acid] | 85 nM
22 | CC(C)(O)CCOc1ccc(C#N)c(Oc2ccc(F)c3c2CC[C@H]3Oc2ccc3c(c2)OC[C@H]3CC(=O)O)c1 [Example 42, ((S)-6-{(R)-4-[2-Cyano-5-(3-hydroxy-3-methylbutoxy)-phenoxy]-7-fluoro-indan-1-yloxy}-2,3-dihydrobenzofuran-3-yl)-acetic acid] | 120 nM
23 | N#Cc1cc(Oc2ccc(F)c3c2CC[C@H]3Oc2ccc3c(c2)OC[C@H]3CC(=O)O)ccc1O[C@@H]1CCOC1 [Example 43, ((S)-6-{(R)-4-[3-Cyano-4-((R)-tetrahydrofuran-3-yloxy)phenoxy]-7-fluoro-indan-1-yloxy}-2,3-dihydrobenzofuran-3-yl)-acetic acid] | 18 nM
24 | CC(C)(O)CCOc1ccc(Oc2ccc(F)c3c2CC[C@H]3Oc2ccc3c(c2)OC[C@H]3CC(=O)O)cc1C#N [Example 44, ((S)-6-{(R)-4-[3-Cyano-4-(3-hydroxy-3-methylbutoxy)phenoxy]-7-fluoro-indan-1-yloxy}-2,3-dihydrobenzofuran-3-yl)-acetic acid] | 7 nM
25 | CC(C)(O)CCOc1ccc(F)c(Oc2ccc(F)c3c2CC[C@H]3Oc2ccc3c(c2)OC[C@H]3CC(=O)O)c1 [Example 45, ((S)-6-{(R)-7-Fluoro-4-[2-fluoro-5-(3-hydroxy-3-methylbutoxy)phenoxy]-indan-1-yloxy}-2,3-dihydrobenzofuran-3-yl)-acetic acid] | 29 nM
26 | O=C(O)C[C@@H]1COc2cc(O[C@@H]3CCc4c(Oc5cc(OC6CCOCC6)ccc5F)ccc(F)c43)ccc21 [Example 46, ((S)-6-{(R)-7-Fluoro-4-[2-fluoro-5-(tetrahydro-2H-pyran-4-yloxy)phenoxy]-indan-1-yloxy}-2,3-dihydrobenzofuran-3-yl)-acetic acid] | 62 nM
27 | CC(C)(O)CCOc1ccc(Oc2ccc(F)c3c2CC[C@H]3Oc2ccc3c(c2)OC[C@H]3CC(=O)O)c(C#N)c1 [Example 47, ((S)-6-{(R)-4-[2-Cyano-4-(3-hydroxy-3-methylbutoxy)phenoxy]-7-fluoro-indan-1-yloxy}-2,3-dihydrobenzofuran-3-yl)-acetic acid] | 8 nM
